Data taken from PubChem BioAssay (NCI).
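Tested at 5 concentrations; 48 h exposure; 96-well plates; endpoints linearly interpolated, else capped at highest concentration. TGI marks complete inhibition of growth.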

Key:
Experiment in all cases: DTP human tumour cell line panel, 48 h
UO-31 renal = system: UO-31 renal
OVCAR-8 ovarian = system: OVCAR-8 ovarian
MALME-3M melanoma = system: MALME-3M melanoma
SNB-75 CNS = system: SNB-75 CNS
U251 CNS = system: U251 CNS
UACC-62 melanoma = system: UACC-62 melanoma
MCF7 breast = system: MCF7 breast
HCT-116 colon = system: HCT-116 colon
NCI/ADR-RES ovarian = system: NCI/ADR-RES ovarian
EKVX NSCLC = system: EKVX NSCLC
MDA-MB-231 breast = system: MDA-MB-231 breast
SF-268 CNS = system: SF-268 CNS
HS 578T breast = system: HS 578T breast
M14 melanoma = system: M14 melanoma
SK-MEL-2 melanoma = system: SK-MEL-2 melanoma
MDA-N = system: MDA-N
NCI-H522 lung = system: NCI-H522 lung
MDA-MB-435 = system: MDA-MB-435
COLO 205 colon = system: COLO 205 colon
SF-295 CNS = system: SF-295 CNS
DU-145 prostate = system: DU-145 prostate
K-562 leukemia = system: K-562 leukemia
NCI-H23 lung = system: NCI-H23 lung
OVCAR-4 ovarian = system: OVCAR-4 ovarian
HCC-2998 colon = system: HCC-2998 colon
HOP-62 NSCLC = system: HOP-62 NSCLC
HOP-92 NSCLC = system: HOP-92 NSCLC
SR leukemia = system: SR leukemia
A549 NSCLC = system: A549 NSCLC
IGROV1 ovarian = system: IGROV1 ovarian
SK-MEL-28 melanoma = system: SK-MEL-28 melanoma
ACHN renal = system: ACHN renal
RPMI-8226 leukemia = system: RPMI-8226 leukemia
OVCAR-3 ovarian = system: OVCAR-3 ovarian
TK-10 renal = system: TK-10 renal
UACC-257 melanoma = system: UACC-257 melanoma
PC-3 prostate = system: PC-3 prostate
SN12C renal = system: SN12C renal
SNB-19 CNS = system: SNB-19 CNS
SW-620 colon = system: SW-620 colon
HT29 colon = system: HT29 colon
HCT-15 colon = system: HCT-15 colon
MOLT-4 leukemia = system: MOLT-4 leukemia
HL-60(TB) leukemia = system: HL-60(TB) leukemia
A498 renal = system: A498 renal
RXF 393 renal = system: RXF 393 renal
NCI-H226 lung = system: NCI-H226 lung
KM12 colon = system: KM12 colon
OVCAR-5 ovarian = system: OVCAR-5 ovarian
LOX IMVI melanoma = system: LOX IMVI melanoma
SK-OV-3 ovarian = system: SK-OV-3 ovarian
CAKI-1 renal = system: CAKI-1 renal
786-0 renal = system: 786-0 renal
CCRF-CEM leukemia = system: CCRF-CEM leukemia
SK-MEL-5 melanoma = system: SK-MEL-5 melanoma
NCI-H460 lung = system: NCI-H460 lung
T-47D breast = system: T-47D breast
SF-539 CNS = system: SF-539 CNS

In the case of `C[n+]1c(-c2ccccc2)cc2/c(=C\c3ccccc3)c3ccccc3n21`, the TGI (UO-31 renal) is reported as 7.81 µM, the TGI (OVCAR-8 ovarian) is reported as 4.19 µM and the TGI (MALME-3M melanoma) is reported as 2.93 µM. It also gave a TGI (SNB-75 CNS) of 2.05 µM, a TGI (U251 CNS) of 1.67 µM and a TGI (UACC-62 melanoma) of 3.24 µM. It also gave a TGI (MCF7 breast) of over 32.2 µM, a TGI (HCT-116 colon) of 4.91 µM and a TGI (NCI/ADR-RES ovarian) of 71.1 µM. For the same molecule, the TGI (EKVX NSCLC) was 9.64 µM, the TGI (MDA-MB-231 breast) was 3.55 µM and the TGI (SF-268 CNS) was 2.92 µM. The TGI (HS 578T breast) was 0.576 µM, the TGI (M14 melanoma) was 4.19 µM and the TGI (SK-MEL-2 melanoma) was 2.26 µM. The TGI (MDA-N) was 3.42 µM, the TGI (NCI-H522 lung) was 2.01 µM and the TGI (MDA-MB-435) was 2.45 µM. The TGI (COLO 205 colon) was 1.8 µM, the TGI (SF-295 CNS) was 76 µM and the TGI (DU-145 prostate) was 10.6 µM. For the same molecule, the TGI (K-562 leukemia) was over 100 µM, the TGI (NCI-H23 lung) was 7.2 µM and the TGI (OVCAR-4 ovarian) was 17.2 µM. The TGI (HCC-2998 colon) was 14.2 µM, the TGI (HOP-62 NSCLC) was 6.9 µM and the TGI (HOP-92 NSCLC) was 4.93 µM. The TGI (SR leukemia) was over 21.4 µM, the TGI (A549 NSCLC) was over 36.3 µM and the TGI (IGROV1 ovarian) was 2.64 µM. For the same molecule, the TGI (SK-MEL-28 melanoma) was 2.73 µM, the TGI (ACHN renal) was 11.8 µM and the TGI (RPMI-8226 leukemia) was over 100 µM. It also gave a TGI (OVCAR-3 ovarian) of 3.04 µM, a TGI (TK-10 renal) of 14.2 µM and a TGI (UACC-257 melanoma) of 3.98 µM. The TGI (PC-3 prostate) was 3.69 µM, the TGI (SN12C renal) was 3.32 µM and the TGI (SNB-19 CNS) was 24 µM. The TGI (SW-620 colon) was 3.47 µM, the TGI (HT29 colon) was 3.22 µM and the TGI (HCT-15 colon) was 11.5 µM. The TGI (MOLT-4 leukemia) was 7.78 µM, the TGI (HL-60(TB) leukemia) was 0.302 µM and the TGI (A498 renal) was 23.1 µM. For the same molecule, the TGI (RXF 393 renal) was 4.07 µM, the TGI (NCI-H226 lung) was 2.01 µM and the TGI (KM12 colon) was 2.18 µM. The TGI (OVCAR-5 ovarian) was 13.4 µM, the TGI (LOX IMVI melanoma) was 2.88 µM and the TGI (SK-OV-3 ovarian) was 17.4 µM. It also gave a TGI (CAKI-1 renal) of 11.4 µM and a TGI (786-0 renal) of 2.77 µM.
`S=C(/C=C1\SC(=Nc2ccccc2)C(=Nc2ccccc2)N1c1ccccc1)Nc1ccccc1` gave a TGI (OVCAR-8 ovarian) of over 100 µM, a TGI (MALME-3M melanoma) of over 100 µM and a TGI (SNB-75 CNS) of over 100 µM. It also gave a TGI (CCRF-CEM leukemia) of over 100 µM, a TGI (U251 CNS) of over 100 µM and a TGI (UACC-62 melanoma) of over 100 µM. For the same molecule, the TGI (HCT-116 colon) was over 100 µM, the TGI (NCI/ADR-RES ovarian) was over 100 µM and the TGI (MDA-MB-231 breast) was over 100 µM. For the same molecule, the TGI (HS 578T breast) was over 100 µM, the TGI (M14 melanoma) was over 100 µM and the TGI (SK-MEL-2 melanoma) was over 100 µM. It also gave a TGI (MDA-N) of over 100 µM, a TGI (SK-MEL-5 melanoma) of over 100 µM and a TGI (NCI-H522 lung) of over 100 µM. For the same molecule, the TGI (MDA-MB-435) was over 100 µM, the TGI (COLO 205 colon) was over 100 µM and the TGI (SF-295 CNS) was over 100 µM. For the same molecule, the TGI (DU-145 prostate) was over 100 µM, the TGI (NCI-H23 lung) was over 100 µM and the TGI (HOP-62 NSCLC) was over 100 µM. It also gave a TGI (HOP-92 NSCLC) of over 100 µM, a TGI (SR leukemia) of over 100 µM and a TGI (IGROV1 ovarian) of over 100 µM. For the same molecule, the TGI (SK-MEL-28 melanoma) was over 100 µM, the TGI (RPMI-8226 leukemia) was over 100 µM and the TGI (NCI-H460 lung) was over 100 µM. It also gave a TGI (OVCAR-3 ovarian) of over 100 µM, a TGI (PC-3 prostate) of over 100 µM and a TGI (SN12C renal) of over 100 µM. For the same molecule, the TGI (HT29 colon) was over 100 µM, the TGI (HCT-15 colon) was over 100 µM and the TGI (MOLT-4 leukemia) was over 100 µM. For the same molecule, the TGI (HL-60(TB) leukemia) was over 100 µM, the TGI (A498 renal) was over 100 µM and the TGI (KM12 colon) was over 100 µM. The TGI (T-47D breast) was over 100 µM, the TGI (SK-OV-3 ovarian) was over 100 µM and the TGI (CAKI-1 renal) was over 100 µM.
For `c1ccc(-c2cc(-c3cccs3)c(-c3cccs3)s2)cc1`, the TGI (UO-31 renal) was 72.3 µM, the TGI (OVCAR-8 ovarian) was over 100 µM and the TGI (SNB-75 CNS) was over 100 µM. For the same molecule, the TGI (CCRF-CEM leukemia) was 57.9 µM, the TGI (U251 CNS) was over 100 µM and the TGI (UACC-62 melanoma) was over 100 µM. The TGI (MCF7 breast) was 41 µM, the TGI (HCT-116 colon) was over 100 µM and the TGI (NCI/ADR-RES ovarian) was over 100 µM. It also gave a TGI (EKVX NSCLC) of over 100 µM, a TGI (MDA-MB-231 breast) of over 100 µM and a TGI (SF-268 CNS) of over 100 µM. For the same molecule, the TGI (HS 578T breast) was over 100 µM, the TGI (M14 melanoma) was 54.5 µM and the TGI (MDA-N) was over 100 µM. It also gave a TGI (SK-MEL-5 melanoma) of over 100 µM, a TGI (NCI-H522 lung) of 64.8 µM and a TGI (MDA-MB-435) of 75.5 µM. It also gave a TGI (COLO 205 colon) of over 100 µM, a TGI (SF-295 CNS) of over 100 µM and a TGI (DU-145 prostate) of over 100 µM. For the same molecule, the TGI (NCI-H23 lung) was 60.2 µM, the TGI (OVCAR-4 ovarian) was 62.6 µM and the TGI (HCC-2998 colon) was 67.8 µM. It also gave a TGI (HOP-62 NSCLC) of over 100 µM, a TGI (HOP-92 NSCLC) of over 100 µM and a TGI (SR leukemia) of 52.3 µM. It also gave a TGI (IGROV1 ovarian) of over 100 µM, a TGI (ACHN renal) of over 100 µM and a TGI (RPMI-8226 leukemia) of 79 µM. It also gave a TGI (NCI-H460 lung) of over 100 µM, a TGI (OVCAR-3 ovarian) of over 100 µM and a TGI (TK-10 renal) of over 100 µM. The TGI (UACC-257 melanoma) was over 100 µM, the TGI (SN12C renal) was over 100 µM and the TGI (SF-539 CNS) was over 100 µM. It also gave a TGI (SW-620 colon) of over 100 µM, a TGI (HT29 colon) of over 100 µM and a TGI (HCT-15 colon) of 70.1 µM. For the same molecule, the TGI (MOLT-4 leukemia) was 63.1 µM, the TGI (HL-60(TB) leukemia) was 88.5 µM and the TGI (A498 renal) was over 100 µM. The TGI (RXF 393 renal) was 47.3 µM, the TGI (NCI-H226 lung) was over 100 µM and the TGI (KM12 colon) was 32.9 µM. It also gave a TGI (OVCAR-5 ovarian) of over 100 µM, a TGI (T-47D breast) of 58.4 µM and a TGI (SK-OV-3 ovarian) of over 100 µM. For the same molecule, the TGI (CAKI-1 renal) was over 100 µM and the TGI (786-0 renal) was over 100 µM.
